From patent US20060079453A1, “Hla binding peptides and their uses” (priority 2002, published 2006)
Where two headings read alike, the source gives them in different places. No end group written: not given here.

What was measured:
Assay in all cases: biochemical
Assay type in all cases: binding
[1] = biological target: HLA-DR DRB1*0101 (DR1) (Homo sapiens, UniProt P01903+P01911, A100R/D57E/F55L/F60I/F76Y/I96L/L162R/M171V/P40L/Q125E/R42F/V115G/Y59C)
[2] = biological target: HLA-DR DRB1*0301 (DR3) (Homo sapiens, UniProt P01903+P01911, A100K/A102G/A103R/A169T/F55Y/I96L/K41T/L162R/M171V/P40S/Q125H/Q178H/Q39Y/R42S/S66N/T106N/T262R/W38E/Y61H)
[3] = biological target: HLA-DR DRB1*0401 (DR4) (Homo sapiens, UniProt P01903+P01911, A100K/A169T/F76Y/I96L/K127E/L162R/M171V/N62H/P40V/Q125Y/R42H/S133A/S149N/S66Y/V115G/V209L/W38E)
[4] = biological target: HLA-DR DRB1*0405 (DR4) (Homo sapiens, UniProt P01903+P01911, A100R/A169T/D86S/F76Y/I96L/K127E/L162R/M171V/N62H/P40V/Q125Y/R42H/S133A/S149N/S66Y/V115G/V209L/W38E)
[5] = biological target: HLA-DR DRB1*0701 (DR7) (Homo sapiens, UniProt P01903+P01911, A100R/A102G/A103Q/D57E/D86V/E43K/F76Y/K127E/L162R/M171V/P40G/Q125H/Q99D/R33Q/R42Y/R54Q/S133A/S66F/T210M/V115G/Y107V/Y59L/Y89S)
[6] = biological target: HLA-DR DRB1*1101 (DR11) (Homo sapiens, UniProt P01903+P01911, A100R/A169T/A87E/I96F/K41T/L162R/M171V/P40S/Q125H/Q178H/Q39Y/Q99D/R42S/S66Y/T262R/V115G/W38E); conditions: DRB1 *1101
[7] = biological target: HLA-DR DRB1*1302 (DR13) (Homo sapiens, UniProt P01903+P01911, A100E/A169T/K41T/L162R/M171V/P40S/Q125H/Q178H/Q39Y/Q99D/R42S/S66N/T262R/V115G/W38E/Y61H); conditions: DRBI *1302
[8] = biological target: HLA-DR DRB1*1501 (DR15) (Homo sapiens, UniProt P01903+P01911); conditions: DRBI *1501
[9] = biological target: HLA-DR DRB4*0101 (DR53) (Homo sapiens, UniProt P01903+P13762, G164S); conditions: DRB4 *0101
[10] = biological target: HLA-DR DRB5*0101 (DR51) (Homo sapiens, UniProt P01903+Q30154); conditions: DRB5 *0101
[11] = biological target: HLA-A*0301 (Homo sapiens, UniProt P04439)
[12] = biological target: HLA-A*1101 (Homo sapiens, UniProt P04439, A114D/D185E/E176A/F33Y/L180Q/S129P/T187R)
[13] = biological target: HLA-A*3101 (Homo sapiens, UniProt P04439, A270S/D185E/E176V/E277Q/F33T/G231S/G80R/H175R/I121M/I218V/I322F/K168Q/L300P/L318F/M331R/P217A/Q94H/R138Q/T323A/T345S/T97I/V358M)
[14] = biological target: HLA-A*3301 (Homo sapiens, UniProt P04439, A270S/D185E/E176V/E277Q/E87N/F33T/G231S/H175R/I121M/I218V/I322F/K168Q/K210R/L300P/L318F/M331R/P217A/Q86R/Q94H/R138Q/T323A/T345S/T97I/V358M/Y195H)
[15] = biological target: HLA-A*6801 (Homo sapiens, UniProt P04439, A269V/D185E/E176V/E277Q/E87N/F33Y/G231S/I121M/I166T/I218V/L180W/L300P/L318F/N151K/P208A/P217A/Q86R/R169H/T345S)

Chain of HLA-A*1101 (P04439 25-365 limits assumed, stated change not applied): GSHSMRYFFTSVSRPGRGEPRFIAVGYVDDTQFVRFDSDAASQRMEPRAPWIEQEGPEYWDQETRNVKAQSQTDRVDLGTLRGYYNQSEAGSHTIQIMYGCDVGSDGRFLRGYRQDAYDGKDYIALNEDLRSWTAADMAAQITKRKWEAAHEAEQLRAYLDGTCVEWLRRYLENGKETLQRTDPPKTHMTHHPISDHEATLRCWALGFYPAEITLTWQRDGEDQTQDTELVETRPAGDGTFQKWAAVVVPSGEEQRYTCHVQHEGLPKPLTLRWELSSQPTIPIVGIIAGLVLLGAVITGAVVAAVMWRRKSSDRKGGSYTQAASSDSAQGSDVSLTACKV
Chain of HLA-DR DRB1*0301 (DR3) (P01903 26-254 limits assumed, other chains not shown): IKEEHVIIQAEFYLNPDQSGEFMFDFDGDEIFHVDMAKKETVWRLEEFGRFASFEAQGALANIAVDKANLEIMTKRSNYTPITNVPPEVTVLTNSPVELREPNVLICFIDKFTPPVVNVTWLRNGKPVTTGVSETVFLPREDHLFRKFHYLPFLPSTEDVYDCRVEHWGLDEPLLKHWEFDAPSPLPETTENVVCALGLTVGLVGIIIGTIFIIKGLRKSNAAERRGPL
Chain of HLA-DR DRB1*1302 (DR13) (P01903 26-254 limits assumed, other chains not shown): as above
Chain of HLA-DR DRB1*1101 (DR11) (P01903 26-254 limits assumed, other chains not shown): as above

| Compound | IC50 ([1]; DRB1 *0101) [nM] | IC50 [2] [nM] | IC50 ([3]; DRB1 *0401) [nM] | IC50 ([4]; DRB1 *0405) [nM] | IC50 ([5]; DRB1 *0701) [nM] | IC50 [7] [nM] | IC50 [8] [nM] | IC50 [9] [nM] | IC50 [10] [nM] | IC50 [11] [nM] | IC50 [12] [nM] | IC50 [13] [nM] | IC50 [14] [nM] | IC50 [15] [nM] | further results |
| --- | --- | --- | --- | --- | --- | --- | --- | --- | --- | --- | --- | --- | --- | --- | --- |
| CC[C@H](C)[C@H](NC(=O)[C@H](CO)NC(=O)[C@H](CC(=O)O)NC(=O)[C@H](CCCNC(=N)N)NC(=O)[C@H](Cc1ccc(O)cc1)NC(=O)[C@@H](NC(=O)[C@@H](NC(=O)[C@H](Cc1ccccc1)NC(=O)[C@@H](N)CC(C)C)C(C)C)C(C)C)C(=O)N1CCC[C@H]1C(=O)N[C@@H](Cc1c[nH]cn1)C(=O)N[C@@H](C)C(=O)N[C@@H](C)C(=O)N[C@@H](CS)C(=O)N[C@@H](Cc1c[nH]cn1)C(=O)O | 131 | 62 | 3 | 690 | 2000 | 697 | 437 | 3580 | 7850 | – | – | – | – | – | IC50 [6]: 1580 nM |
| CC(C)C[C@H](NC(=O)[C@H](CCC(N)=O)NC(=O)[C@H](CCC(N)=O)NC(=O)[C@H](CC(C)C)NC(=O)[C@@H](NC(=O)[C@H](CCCNC(=N)N)NC(=O)[C@@H](N)CC(C)C)[C@@H](C)O)C(=O)N[C@@H](Cc1ccccc1)C(=O)N[C@@H](CC(C)C)C(=O)N[C@@H](CO)C(=O)N[C@H](C(=O)N[C@@H](CC(C)C)C(=O)N[C@@H](CO)C(=O)N[C@@H](Cc1ccccc1)C(=O)N[C@H](C(=O)O)C(C)C)[C@@H](C)O | 8.3 | 801 | 18 | 9 | 60 | 55 | 29 | 3.1 | 1990 | – | – | – | – | – | IC50 [6]: 208 nM |
| CC[C@H](C)[C@H](NC(=O)[C@@H](N)Cc1c[nH]c2ccccc12)C(=O)N[C@H](C(=O)N[C@@H](CCC(N)=O)C(=O)N[C@@H](CS)C(=O)N[C@@H](Cc1ccccc1)C(=O)N[C@@H](CC(C)C)C(=O)N1CCC[C@H]1C(=O)N[C@H](C(=O)N[C@@H](Cc1ccccc1)C(=O)N[C@@H](CC(C)C)C(=O)N[C@@H](C)C(=O)N[C@@H](CCC(N)=O)C(=O)N1CCC[C@H]1C(=O)N1CCC[C@H]1C(=O)N[C@@H](CO)C(=O)NCC(=O)N[C@@H](CCC(N)=O)C(=O)N[C@@H](CCCNC(=N)N)C(=O)N[C@@H](CCCNC(=N)N)C(=O)O)C(C)C)[C@@H](C)O | 679 | 25500 | 88 | 216 | 74200 | – | – | – | – | – | – | – | – | – | – |
| EFAFKDLFVVYRDS | – | – | – | – | – | – | – | – | – | – | – | – | – | – | IC50 ([3]; read-out: DRB1 *0401): 2220 nM; IC50 ([4]; read-out: DRB1 *0405): 33 nM; IC50 ([5]; read-out: DRB1 *0701): 3690 nM |
| HQAISPRTLNGPGPGSPAIF | 1550 | 728000 | – | 3110 | 5080 | 638 | 5570 | 232 | 32900 | – | – | – | – | – | IC50 [6]: 9870 nM |
| HYCYSLYGTTLEQQY | 546 | – | – | 76 | 9860 | > 13700 | 4850 | – | > 10700 | – | – | – | – | – | – |
| IQQLLMGTVNIYCPT | – | – | – | – | – | – | – | – | – | – | – | – | – | – | IC50 ([1]; read-out: DRB1 *0101): 71 nM; IC50 ([2]; read-out: DRB1 *0301): 93700 nM; IC50 ([4]; read-out: DRB1 *0405): 624 nM |
| KKPLNEILIRCIICQ | – | – | – | – | – | – | – | – | – | – | – | – | – | – | IC50 ([3]; read-out: DRB1 *0401): 315 nM; IC50 ([4]; read-out: DRB1 *0405): 347 nM; IC50 ([5]; read-out: DRB1 *0701): 7970 nM |
| LRAFQQLFLNTLSFV | 1.5 | 648 | 7.4 | 8.3 | 75 | 1.01 | 20 | 2.2 | – | – | – | – | – | – | – |
| LRIVYRDGNPFAVCK | – | – | 16 | 557 | 8990 | 123 | – | 1570 | 6820 | – | – | – | – | – | IC50 [6]: 109 nM |
| TLEQTVKK | – | – | – | – | – | – | – | – | – | 4770 | 203 | > 100000 | > 75300 | 21400 | – |
| TLYQIQVMKR | – | – | – | – | – | – | – | – | – | 361 | 164 | 397 | 558 | 90 | – |
| TSVHEIELR | – | – | – | – | – | – | – | – | – | > 64300 | 872 | 1040 | 5950 | 12 | – |
| TVQPGPGPGK | – | – | – | – | – | – | – | – | – | 41 | 2.5 | 1340 | 68600 | 28 | – |
| VFADLRIVYK | – | – | – | – | – | – | – | – | – | 2090 | 127 | 402 | 200 | 273 | – |
| VSHAQLPAK | – | – | – | – | – | – | – | – | – | 378 | 9.5 | 46 | 1400 | 13500 | – |
